Data: publication PMC12102759 (Protein Science : A Publication of the Protein Society, 2025)

tested on: G3BP1 NFT2; assay: not given; assay type: binding, human; conditions: library DMS-BM; bait G3BP1 NFT2; prey CAPRIN1; AQMQGPYNFIQDSM(averaged): mean of the two overlapping peptides over the shared positions

Substance | DMS position-specific score (PSSM value) per amino-acid substitution, averaged
AQMQGPYNFIQDSM(averaged) Y7R (AQMQGPRNFIQDSM) | 0
AQMQGPYNFIQDSM(averaged) Y7H (AQMQGPHNFIQDSM) | 0.0003057
AQMQGPYNFIQDSM(averaged) A1W (WQMQGPYNFIQDSM) | 0.05589
AQMQGPYNFIQDSM(averaged) N8W (AQMQGPYWFIQDSM) | 0.1126
AQMQGPYNFIQDSM(averaged) I10S (AQMQGPYNFSQDSM) | 0.0008082
AQMQGPYNFIQDSM(averaged) Y7G (AQMQGPGNFIQDSM) | 0.05778
AQMQGPYNFIQDSM(averaged) Q11P (AQMQGPYNFIPDSM) | 0
AQMQGPYNFIQDSM(averaged) N8M (AQMQGPYMFIQDSM) | 0.01948
AQMQGPYNFIQDSM(averaged) M14K (AQMQGPYNFIQDSK) | 0.0006833
AQMQGPYNFIQDSM(averaged) M14V (AQMQGPYNFIQDSV) | 0.02285
AQMQGPYNFIQDSM(averaged) Q2Y (AYMQGPYNFIQDSM) | 0.05198
AQMQGPYNFIQDSM(averaged) Q4I (AQMIGPYNFIQDSM) | 0.04808
AQMQGPYNFIQDSM(averaged) A1G (GQMQGPYNFIQDSM) | 0.01098
AQMQGPYNFIQDSM(averaged) G5D (AQMQDPYNFIQDSM) | 0.001672
AQMQGPYNFIQDSM(averaged) D12M (AQMQGPYNFIQMSM) | 0.01204
AQMQGPYNFIQDSM(averaged) Q4V (AQMVGPYNFIQDSM) | 0.1002
AQMQGPYNFIQDSM(averaged) F9T (AQMQGPYNTIQDSM) | 0
AQMQGPYNFIQDSM(averaged) Y7D (AQMQGPDNFIQDSM) | 0
AQMQGPYNFIQDSM(averaged) F9W (AQMQGPYNWIQDSM) | 0
AQMQGPYNFIQDSM(averaged) Q11N (AQMQGPYNFINDSM) | 0.05691
AQMQGPYNFIQDSM(averaged) A1A | 0.1937
AQMQGPYNFIQDSM(averaged) Q11T (AQMQGPYNFITDSM) | 0.1081
AQMQGPYNFIQDSM(averaged) M3M | 0.1084
AQMQGPYNFIQDSM(averaged) D12P (AQMQGPYNFIQPSM) | 0.216
AQMQGPYNFIQDSM(averaged) D12Y (AQMQGPYNFIQYSM) | 0.00358

Substance | DMS position-specific score (PSSM value) per amino-acid substitution, averaged
AQMQGPYNFIQDSM(averaged) S13W (AQMQGPYNFIQDWM) | 0.01323
AQMQGPYNFIQDSM(averaged) S13L (AQMQGPYNFIQDLM) | 0.0002731
AQMQGPYNFIQDSM(averaged) Q2R (ARMQGPYNFIQDSM) | 0.001052
AQMQGPYNFIQDSM(averaged) F9D (AQMQGPYNDIQDSM) | 0.037
AQMQGPYNFIQDSM(averaged) A1Y (YQMQGPYNFIQDSM) | 0.1391
AQMQGPYNFIQDSM(averaged) D12R (AQMQGPYNFIQRSM) | 0.003499
AQMQGPYNFIQDSM(averaged) A1E (EQMQGPYNFIQDSM) | 0.1606
AQMQGPYNFIQDSM(averaged) M3W (AQWQGPYNFIQDSM) | 0.07564
AQMQGPYNFIQDSM(averaged) S13M (AQMQGPYNFIQDMM) | 0
AQMQGPYNFIQDSM(averaged) G5M (AQMQMPYNFIQDSM) | 0.1116
AQMQGPYNFIQDSM(averaged) D12K (AQMQGPYNFIQKSM) | 0.003093
AQMQGPYNFIQDSM(averaged) S13K (AQMQGPYNFIQDKM) | 0
AQMQGPYNFIQDSM(averaged) N8A (AQMQGPYAFIQDSM) | 0.06427
AQMQGPYNFIQDSM(averaged) Q2F (AFMQGPYNFIQDSM) | 0.3525
AQMQGPYNFIQDSM(averaged) Q11S (AQMQGPYNFISDSM) | 0.05986
AQMQGPYNFIQDSM(averaged) I10I | 0.4804
AQMQGPYNFIQDSM(averaged) P6P | 0.3942
AQMQGPYNFIQDSM(averaged) Q4A (AQMAGPYNFIQDSM) | 0.0506
AQMQGPYNFIQDSM(averaged) Q4T (AQMTGPYNFIQDSM) | 0.0001371
AQMQGPYNFIQDSM(averaged) M3P (AQPQGPYNFIQDSM) | 0.0009459
AQMQGPYNFIQDSM(averaged) M3Q (AQQQGPYNFIQDSM) | 0.0638
AQMQGPYNFIQDSM(averaged) Q11M (AQMQGPYNFIMDSM) | 0.0771
AQMQGPYNFIQDSM(averaged) M14M | 0.2883
AQMQGPYNFIQDSM(averaged) F9K (AQMQGPYNKIQDSM) | 0
AQMQGPYNFIQDSM(averaged) G5K (AQMQKPYNFIQDSM) | 0.001793

biological target: G3BP1 NTF2 (Homo sapiens, UniProt Q13283); assay: biochemical; assay type: binding; conditions: not given
Sequence (Q13283 1-139): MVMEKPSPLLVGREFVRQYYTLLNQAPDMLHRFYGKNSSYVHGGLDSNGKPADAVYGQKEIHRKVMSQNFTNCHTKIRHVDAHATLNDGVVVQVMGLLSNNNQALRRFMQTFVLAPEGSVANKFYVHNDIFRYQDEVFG

Substance | IC50 | effect of mutation on affinity, in words
Ac-AERITFGGPSDSTGSY-NH2 [N P13E] | 22 µM | 
Ac-APRIEFGGPSDSTGSY-NH2 [N12–26 T16E] |  | sevenfold loss of affinity
Ac-DPRITFGGPSDSTGSY-NH2 [N A12D] | 9.9 µM | 
Ac-APRITFGGPYDSTGSY-NH2 [N S21Y] | 16 µM | 
Ac-APLITFGGPSDSTGSY-NH2 [N R14L] | 11 µM | 
Ac-APRITFGGFSDSTGSY-NH2 [N P20F] | 44 µM | 
Ac-APRIEFGGPSDSTGSY-NH2 [N T15E] | 49 µM | 
Ac-APRITFGAPSDSTGSY-NH2 [N G19A] | 5.2 µM | 

same assay, conditions: KD

Substance | Kd
Ac-AERITFGGPSDSTGSY-NH2 [N P13E] | 6.8 µM
Ac-APRITFGGPSDSTGSY-NH2 [N12–26] | 2 µM
Ac-APRIEFGGPSDSTGSY-NH2 [N12–26 T16E] | 16 µM
Ac-DPRITFGGPSDSTGSY-NH2 [N A12D] | 2.7 µM
Ac-APRITFGGPYDSTGSY-NH2 [N S21Y] | 4.7 µM
Ac-APLITFGGPSDSTGSY-NH2 [N R14L] | 3 µM
Ac-APRITFGGFSDSTGSY-NH2 [N P20F] | 14 µM
Ac-APRITFGGPSDSTGSY-NH2 [N wt] | 2.3 µM
Ac-APRITFGAPSDSTGSY-NH2 [N G19A] | 1.1 µM

tested on: USP7 MATH; assay: not given; assay type: binding, human; conditions: DMS-CoV library, bait USP7 MATH, prey N, parental peptide SKQLQQSMSSADSTQA, label suffix = wt residue, displayed residue (same letter = wild type), x = no value

Substance | DMS PSSM value (matrix of displayed amino acid x peptide position)
SKQLQQSMSSADSTQA S1S | 1
SKQLQQSMSSADSTQA D12D | 1
SKQLQQSMSSADSTQA S13S | 1
SKQLQQSMSSADSTQA T14V (SKQLQQSMSSADSVQA) | 1
SKQLQQSMSSADSTQA S9S | 1
SKQLQQSMSSADSTQA K2V (SVQLQQSMSSADSTQA) | 1
SKQLQQSMSSADSTQA Q6Q | 1
SKQLQQSMSSADSTQA M8M | 1
SKQLQQSMSSADSTQA A11A | 1
SKQLQQSMSSADSTQA Q5Q | 1
SKQLQQSMSSADSTQA Q15Q | 1
SKQLQQSMSSADSTQA S10S | 1
SKQLQQSMSSADSTQA S7S | 1
SKQLQQSMSSADSTQA Q3Q | 1

biological target: NSP9 (Severe acute respiratory syndrome coronavirus 2, UniProt P0DTC1); assay: biochemical; assay type: binding, SARS‐CoV‐2; conditions: not given

Substance | Kd | IC50
Ac-QGAWLDAPEPWEPLLD-NH2 [NOTCH4 G1611D] | 160 µM | 
Ac-QGAWLGAPEPWEPLLD-NH2 [NOTCH4 wt] | 72 µM | 205 µM
Ac-QGAWLGAVEPWEPLLD-NH2 [NOTCH4 P1613V] | 33 µM | 105 µM
Ac-QGAWLGAPVPWEPLLD-NH2 [NOTCH4 E1614V] |  | 178 µM
Ac-QGAWLGIPEPWEPLLD-NH2 [NOTCH4 A1612I] | 50 µM | 149 µM
Ac-QGSWLGAPEPWEPLLD-NH2 [NOTCH4 A1608S] | 216 µM | 583 µM
Ac-QGVWLGAPEPWEPLLD-NH2 [NOTCH4 A1608V] | 16 µM | 59 µM
Ac-QGAWLGAPEYWEPLLD-NH2 [NOTCH4 P1615Y] | 51 µM | 152 µM
Ac-QGAWLGAPEPYEPLLD-NH2 [NOTCH4 W1616Y] | 57 µM | 167 µM
Ac-QGVWLGAVEPWEPLLD-NH2 [NOTCH4 A1608V P1613V] | 5.9 µM | 33.4 µM
Ac-QGAWLPAPEPWEPLLD-NH2 [NOTCH4 G1611P] | 410 µM | 
Ac-QGAWLGAPEPWFPLLD-NH2 [NOTCH4 E1617F] | 35 µM | 109 µM
